Measurements as given in patent publication US11242344B2, “(4-hydroxypyrrolidin-2-yl)-heterocyclic compounds and methods of use thereof” (Genentech, Inc., priority 2017, dated 2022).

Assays:
[1] = target: NanoLuc VHL fusion protein (Homo sapiens (Human), UniProt P40337); test: VHL HEK-293 BRET Assay (NanoBRET Target Engagement); type: cell-based; details: geometric mean where more than one measurement
Protocol: The VHL NanoBRET™ Target Engagement Assay analyzes the apparent affinity of test compounds for VHL in cells by competitive displacement of a VHL NanoBRET™ tracer reversibly bound to a NanoLuc® VHL fusion protein stably expressed in the cells. Test compounds were transferred to the assay plate (384 Well White Non-Binding Corning Assay Plates (Corning-3574)) using an Echo 555 Liquid Handler (Labcyte) in 2.5 nL increments and, as appropriate, intermediate stock concentrations of compounds, in order to prepare a titration series. 50 nL of control compound (10 mM; parental unlabeled VHL antagonist; see structure below) and 50 nL of DMSO (negative control) were dispensed into the appropriate control wells. DMSO was backfilled to a final volume of 50 nL as required. 50 nl per well of 1 mM VHL NanoBRET™ Tracer in DMSO (NanoBRET™ Tracer-PEG2-590 (see structure below)) was transferred into each well using an Echo 555 (ultimately yielding a final concentration of 1 uM). HEK 293 RT VHL-NanoLuc® stable cells were cultured in DMEM High Glucose with Pyruvate, 10% fetal bovine serum, 2 mg/mL of Geneticin Selective Antibiotic (50 mg/ml) and 2 mM HEPES (1 M). Cells were seeded in Opti-MEM (Life Technologies-11058-021), 1.7×10^5 cells/mL, 40 μl per well into the assay plate, centrifuged at 500 rpm for 30 seconds and incubated for 2 hours. Max Signal control wells consisted of DMSO only treated wells. Minimum Signal control wells contained of 10 uM parental unlabeled VHL antagonist (control compound—see structure below). 3× Complete Substrate plus Inhibitor Solution was prepared in Opti-MEM (consists of a 1:166 dilution of NanoBRET™ Nano-Glo® Substrate plus a 1:500 dilution of Extracellular NanoLuc® Inhibitor in Opti-MEM), and 20 ul was dispensed into each well of the 384-well plate and centrifuged at 1000 rpm for 1 minute, then incubated for 2 minutes at room temperature. Background Signal control wells were prepared without tracer for background correction steps. Plates were read using a PerkinElmer Envision Reader (model 2104-0020) equipped with Luminescence option (Mirror: BRET2 Enh (PE Barcode 659), Emission Filter: Omega 610LP (Barcode 504), 2nd Emission Filter: Umbelliferone 460 (Barcode 207), Measurement height: 6.5 mm, Measurement time: 1 s). The raw BRET ratio values were calculated by dividing the acceptor emission value (610 nm) by the donor emission value (460 nm) for each sample. To correct for background, the BRET ratio in the absence of tracer (average of no-tracer control samples) was subtracted from the BRET ratio of each sample. Raw BRET units were converted to milliBRET units (mBU) by multiplying each raw BRET value by 1,000. The normalized NanoBRET™ signal was calculated relative to the Max Signal control wells (DMSO treated control wells) and the Minimum Signal control wells. Percentage inhibition was calculated relative to the Minimum Signal control and Maximum Signal control wells. IC50 values were derived by four parameter curve fitting using the Robust method.

[2] = target: VHL co-expressed with Elongins B and C (Homo sapiens (Human), UniProt P40337); test: Surface Plasmon Resonance Assay; type: binding; details: SPR measured VHL affinity; geometric mean where more than one measurement
Sequence of VHL co-expressed with Elongins B and C (P40337 whole entry, looked up): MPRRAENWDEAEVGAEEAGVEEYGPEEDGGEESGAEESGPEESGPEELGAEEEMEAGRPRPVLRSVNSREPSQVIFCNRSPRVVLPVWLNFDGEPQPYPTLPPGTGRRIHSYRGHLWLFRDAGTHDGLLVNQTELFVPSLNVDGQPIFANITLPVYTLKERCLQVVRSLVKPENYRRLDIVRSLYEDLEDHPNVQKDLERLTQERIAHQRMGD
Sequence of VHL co-expressed with Elongins B and C (Q15370 whole entry partner, looked up): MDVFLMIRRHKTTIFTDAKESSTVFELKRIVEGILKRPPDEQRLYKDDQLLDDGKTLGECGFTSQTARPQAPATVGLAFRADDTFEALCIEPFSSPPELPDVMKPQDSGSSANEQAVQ
Sequence of VHL co-expressed with Elongins B and C (Q15369 whole entry partner, looked up): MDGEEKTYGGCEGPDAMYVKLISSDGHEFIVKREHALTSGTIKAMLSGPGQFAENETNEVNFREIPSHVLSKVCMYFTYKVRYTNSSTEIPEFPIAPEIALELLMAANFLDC
Protocol: Using a Biacore T200, […] tagged VHL co-expressed with Elongins B and C were immobilized to a Biacore SA chip in running buffer without DMSO. Compounds were tested individually at varying concentrations in running buffer (50 mM HEPES pH 7.2, 150 mM NaCl, 0.5 mM TCEP, 0.001% Tween 20, 0.2% PEG3350, 2% DMSO) at 20° C. Sensorgrams were run in order from low to high concentration using a flow rate of 80 μL/min. Association and disassociation times were varied depending on the estimated potency of the compound tested. […] Galdeano et al, J. Med. Chem. 2014, 57, 8657-8663, herein incorporated by reference) which retained greater than 75% of the activity over the course of the run. Analysis of the binding curves and determination of the kinetic parameters were done using evaluation software (Version 2.0, Biacore).

[3] = target: VHL Elongin B/C complex (Homo sapiens (Human), UniProt P40337); test: Fluorescence Polarization (FP) VHL Binding Assay; details: VHL binding, FP assay; geometric mean where more than one measurement
Sequence of VHL Elongin B/C complex (P40337 whole entry, looked up, the tested form may be a part): as the sequence (P40337 whole entry, looked up) above
Sequence of VHL Elongin B/C complex (Q15370 whole entry partner, looked up, the tested form may be a part): as the sequence (Q15370 whole entry partner, looked up) above
Sequence of VHL Elongin B/C complex (Q15369 whole entry partner, looked up, the tested form may be a part): as the sequence (Q15369 whole entry partner, looked up) above
Protocol: The binding of test compounds to the VHL Elongin B/C complex was measured using a fluorescence polarization tracer competition assay. The VHL/Elongin B/C protein complex used in the assay was generated as follows. The coding region for amino acids E55-D213 of human VHL with N-terminal His6 tag with a TEV-protease cleavage site was co-expressed with Elongin B (residues M1-Q118) and Elongin C (Residues M17-C112) in E. coli. […] The purified VHL/Elongin B/C complex was dialyzed into formulation buffer: 20 mM Bis-Tris pH7.0, 150 mM NaCl, 1 mM DTT. A VHL fluorescence polarization probe (prepared in Example 91), consisted of a VHL ligand coupled to carboxytetramethylrhodamine (TAMRA); […] Compounds were prepared as a serial dilution in DMSO at a concentration 25-fold higher than the final desired concentration and acoustically dispensed (400 nl) into a ProxiPlate-384 Plus F, Black 384-shallow well Microplate (Part Number 6008260). DMSO was dispensed into wells designated for “VHL control” (without compound) wells. The “Assay Buffer” consisted of 50 mM Tris pH 8.0, 120 mM NaCl, 0.005% Nonidet P-40, and 1% DMSO (v/v). Assay Buffer containing […] VHL Elongin B/C complex was prepared and 5 μl dispensed using a BioRapTR (Beckman Coulter) into each well of the assay plate. Assay Buffer was also dispensed into “no VHL control” wells using the same method. A “pre-assay” fluorescence measurement was made using an Infinite® M1000 (Tecan) plate reader (Excitation 530 nm, Emission 574 nm, Bandwidth 10 nm). Assay Buffer containing 3.34 nM of the VHL FP probe was prepared in Assay Buffer and 5 μl dispensed into each well of the assay plate using a BioRapTR (Beckman Coulter). The final VHL/Elongin B/C protein concentration is 2.64 nM and the final probe concentration is 1.67 nM. Assay plates were briefly centrifuged and incubated for 1 hour at room temperature. “Post-assay” fluorescence polarization measurements were made as described for the “pre-assay” fluorescence measurement. Fluorescence polarization was calculated for each sample; taking into account the “pre-assay” fluorescence measurements and subtracting the fluorescence signal of the compound/VHL only (“pre-assay”) measurements from the “post-assay” fluorescence polarization measurements, for each plane of polarization. The data were analyzed using Genedata Screener software and normalized to the “no VHL control” and “VHL control” (without compound). IC50 values were calculated using a four parameter curve fit (Robust method).

Sequence of NanoLuc VHL fusion protein (P40337 whole entry, looked up, the tested form may be a part): as the sequence (P40337 whole entry, looked up) above
Sequence of NanoLuc VHL fusion protein (Q15370 whole entry partner, looked up, the tested form may be a part): as the sequence (Q15370 whole entry partner, looked up) above
Sequence of NanoLuc VHL fusion protein (Q15369 whole entry partner, looked up, the tested form may be a part): as the sequence (Q15369 whole entry partner, looked up) above

| SMILES | IC50 [1] [µM] | Kd [2] [µM] | IC50 [3] [µM] |
| --- | --- | --- | --- |
| Cc1cc([C@@H](C(=O)N2C[C@H](O)C[C@H]2C2=NOC(C)(c3ccc(Br)cc3)N2)C(C)C)on1 (mixture of isomers) [Example 113.1, (2S)-1-((2S,4R)-2-(5-(4-Bromophenyl)-5-methyl-4,5-dihydro-1,2,4-oxadiazol-3-yl)-4-hydroxypyrrolidin-1-yl)-3-methyl-2-(3-methylisoxazol-5-yl)butan-1-one and (2R)-1-((2S,4R)-2-(5-(4-Bromophenyl)-5-methyl-4,5-dihydro-1,2,4-oxadiazol-3-yl)-4-hydroxypyrrolidin-1-yl)-3-methyl-2-(3-methylisoxazol-5-yl)butan-1-one] | 96.9 | 24.1 | 70.6 |
| Cc1cc([C@H](C(=O)N2C[C@H](O)C[C@H]2C2=NO[C@@](C)(c3ccc(Br)cc3)N2)C(C)C)on1 (mixture of isomers) [Example 113.2, (2S)-1-((2S,4R)-2-(5-(4-Bromophenyl)-5-methyl-4,5-dihydro-1,2,4-oxadiazol-3-yl)-4-hydroxypyrrolidin-1-yl)-3-methyl-2-(3-methylisoxazol-5-yl)butan-1-one and (2R)-1-((2S,4R)-2-(5-(4-Bromophenyl)-5-methyl-4,5-dihydro-1,2,4-oxadiazol-3-yl)-4-hydroxypyrrolidin-1-yl)-3-methyl-2-(3-methylisoxazol-5-yl)butan-1-one] | 2.94 | 2.49 | 6.3 |
| Cc1cc([C@@H](C(=O)N2C[C@H](O)C[C@H]2C2=NO[C@](C)(c3ccc(Br)cc3)N2)C(C)C)on1 (mixture of isomers) [Example 113.3, (2S)-1-((2S,4R)-2-(5-(4-Bromophenyl)-5-methyl-4,5-dihydro-1,2,4-oxadiazol-3-yl)-4-hydroxypyrrolidin-1-yl)-3-methyl-2-(3-methylisoxazol-5-yl)butan-1-one and (2R)-1-((2S,4R)-2-(5-(4-Bromophenyl)-5-methyl-4,5-dihydro-1,2,4-oxadiazol-3-yl)-4-hydroxypyrrolidin-1-yl)-3-methyl-2-(3-methylisoxazol-5-yl)butan-1-one] | 100 | 90.8 | 400 |
| Cc1cc([C@H](C(=O)N2C[C@H](O)C[C@H]2C2=NO[C@](C)(c3ccc(Br)cc3)N2)C(C)C)on1 (mixture of isomers) [Example 113.4, (2S)-1-((2S,4R)-2-(5-(4-Bromophenyl)-5-methyl-4,5-dihydro-1,2,4-oxadiazol-3-yl)-4-hydroxypyrrolidin-1-yl)-3-methyl-2-(3-methylisoxazol-5-yl)butan-1-one and (2R)-1-((2S,4R)-2-(5-(4-Bromophenyl)-5-methyl-4,5-dihydro-1,2,4-oxadiazol-3-yl)-4-hydroxypyrrolidin-1-yl)-3-methyl-2-(3-methylisoxazol-5-yl)butan-1-one] | 2.92 | 3.17 | 2.28 |
| Cc1cc([C@H](C(=O)N2C[C@H](O)C[C@H]2C2=NO[C@@](c3ccccc3)(C(F)(F)F)N2)C(C)C)on1 (mixture of isomers) [Example 114.1, (2S)-1-((2S,4R)-4-Hydroxy-2-(5-phenyl-5-(trifluoromethyl)-4,5-dihydro-1,2,4-oxadiazol-3-yl)pyrrolidin-1-yl)-3-methyl-2-(3-methylisoxazol-5-yl)butan-1-one and (2R)-1-((2S,4R)-4-Hydroxy-2-(5-phenyl-5-(trifluoromethyl)-4,5-dihydro-1,2,4-oxadiazol-3-yl)pyrrolidin-1-yl)-3-methyl-2-(3-methylisoxazol-5-yl)butan-1-one] | 100 | 150 | 400 |
| Cc1cc([C@H](C(=O)N2C[C@H](O)C[C@H]2C2=NO[C@](c3ccccc3)(C(F)(F)F)N2)C(C)C)on1 (mixture of isomers) [Example 114.2, (2S)-1-((2S,4R)-4-Hydroxy-2-(5-phenyl-5-(trifluoromethyl)-4,5-dihydro-1,2,4-oxadiazol-3-yl)pyrrolidin-1-yl)-3-methyl-2-(3-methylisoxazol-5-yl)butan-1-one and (2R)-1-((2S,4R)-4-Hydroxy-2-(5-phenyl-5-(trifluoromethyl)-4,5-dihydro-1,2,4-oxadiazol-3-yl)pyrrolidin-1-yl)-3-methyl-2-(3-methylisoxazol-5-yl)butan-1-one] | 100 | 150 | 400 |
| Cc1cc([C@H](C(=O)N2C[C@H](O)C[C@H]2C2=NO[C@@](c3ccccc3)(C(F)(F)F)N2)C(C)C)on1 (mixture of isomers) [Example 114.3, (2S)-1-((2S,4R)-4-Hydroxy-2-(5-phenyl-5-(trifluoromethyl)-4,5-dihydro-1,2,4-oxadiazol-3-yl)pyrrolidin-1-yl)-3-methyl-2-(3-methylisoxazol-5-yl)butan-1-one and (2R)-1-((2S,4R)-4-Hydroxy-2-(5-phenyl-5-(trifluoromethyl)-4,5-dihydro-1,2,4-oxadiazol-3-yl)pyrrolidin-1-yl)-3-methyl-2-(3-methylisoxazol-5-yl)butan-1-one] | 48.8 | 8.8 | 47 |
| Cc1cc([C@H](C(=O)N2C[C@H](O)C[C@H]2C2=NO[C@](c3ccccc3)(C(F)(F)F)N2)C(C)C)on1 (mixture of isomers) [Example 114.4, (2S)-1-((2S,4R)-4-Hydroxy-2-(5-phenyl-5-(trifluoromethyl)-4,5-dihydro-1,2,4-oxadiazol-3-yl)pyrrolidin-1-yl)-3-methyl-2-(3-methylisoxazol-5-yl)butan-1-one and (2R)-1-((2S,4R)-4-Hydroxy-2-(5-phenyl-5-(trifluoromethyl)-4,5-dihydro-1,2,4-oxadiazol-3-yl)pyrrolidin-1-yl)-3-methyl-2-(3-methylisoxazol-5-yl)butan-1-one] | 59.9 | 5.86 | 58.3 |
